In patent US20090318357A1, “Molecules Preferentially Associated with Effector T Cells or Regulatory T Cells and Methods of Their Use” (Tolerx, Inc., priority 2002, published 2009):

Experiments:
Assay type in all cases: cell-based, human
[1] = tested on: anti-CD3/anti-CD28 stimulated PBLs; assay: Transcription factor (FOXP3, Tbox21, GATA3) mRNA expression by Real-Time PCR in activated PBL
Experimental: This example describes the effect of TGFβ1 on the expression levels of Tbox 21, GATA3 and FOXP3 expression in anti-CD3/anti-CD28 stimulated PBLs. Real-time PCR was used to quantitate the levels of transcription factor mRNA in the presence and absence of TGFβ1.
PBL were stimulated for 72 hours with anti-CD3/anti-CD28 in the presence or absence of TGFβ1 and total RNA was extracted using a QiganRNeasy Mini Kit according to manufacturer's instructions. RNA was stored at minus 80° C.
cDNA was prepared from RNA using the Applied Biosystems High-Capacity cDNA Archive Kit according to manufacturer's instructions.
One μg cDNA was amplified using Applied Biosystems Assays-on-Demand™ Gene Expression products (i.e., TaqMan Universal PCR Mastermix and Assay-on-Demand solution, including marker specific primers) according to the following protocol, in accordance with manufacturer's instructions. Probe/primer reagents for FOXP3, GATA3 and Tbox21 were obtained from Applied Biosystems via the Assay on Demand program.
For the QPCR reaction, 2.5 μl Assay on Demand reagent (Applied Biosystems) were added to 25 μl TaqMan Master Mix™ and samples brought to a total volume of 50 μl with RNAse-free water. PCR reactions were run under the following conditions: 50° C. for 1 minute, 95° C. for 10 minutes and 40 cycles of 95° C. for 15 seconds followed by 60° C. for 1 minute. 18 sRNA or β-actin was run with every assay as a control; 2.5 μl of primer/probe mix, 25 μl of TaqMan MasterMix™, 22.5 μl RNAse-free water. Reactants were detected using an Applied Biosystems QPCR instrument (i.e., ABI Program 7000 SDS Sequence Detection System). The relative expression of the transcription factors for both TGFβ1-treated and untreated stimulated PBLs was determined. Relative expression was calculated assuming that the levels of transcription factor mRNA in stimulated PBL in the absence of added cytokines was 100%. […]

[2] = tested on: TGFβ1-derived Treg cells; assay: Proliferation of TGFβ1-derived Treg cells (cell count); settings: cells counted; for proliferation of TGFβ1-derived Treg cells: re-stimulated with anti-CD3 and anti-CD28, three days, vs untreated cells
Excerpt: (§1) Differentiated cell lines were produced from cells prepared from human cord blood or peripheral blood CD4+CD45RA+ naïve T cells by a variety of methods, including flow cytometry and magnetic bead separations. Purity of the starting populations was >95%. Cells were then stimulated by CD3 and CD28 antibodies in RPMI 1640 with 10% FCS and 1% Human AB serum with defined mixtures of cytokines and neutralizing antibodies to cytokines to produce the differentiated cell types. Th1 cells were produced by culture with IL12 (62 U/ml) and anti-IL4 (0.2 ug/ml); Th2 cells were produced by culture in IL4(145 U/ml) and anti-IL12 (10 ug/ml) and anti-IFNγ (10 ug/ml); and regulatory T cells were produced by culture in TGFβ (32 U/ml), IL9 (42 U/ml), anti-IL4 (10 ug/ml) and anti-IL12 (10 ug/ml) and anti-IFNγ (10 ug/ml). (Note: anti-IL12 was not used in all experiments). All cultures were supplemented with IL2 (65 U/ml) and IL15 (4500 U/ml). Cells were split into larger culture dishes as warranted by cell division. At the conclusion of one round of cell differentiation (7-12 days), cells were harvested for preparation of total RNA for use in the gene chip experiments.
(§2) Differentiated cell types were prepared as described in Example 1 then cultured in the presence of anti-CD3 and anti-CD28 for seven days. Cells were subsequently re-stimulated with anti-CD3 and anti-CD28, with the addition of Serotonin at 1, 10 and 100 μM, for three days at which time the cells were counted and the data were plotted as a percent of control (untreated cells).
as §2, with “anti-CD28 (as described in Example 7),” for “anti-CD28,”, “either Rolipram or Zardaverine” for “Serotonin”, “0.1 μM, 1.0 μM and” for “1,”, “μM” for “and 100 μM,”

[3] = tested on: Th2 cells; assay: Cytokine production in differentiated Th2 cells (Searchlight ELISA); settings: percent of untreated control, 7-12 days
Excerpt: as §1
(§3) Differentiated cells were prepared as described in Example 1. Varying concentrations (0.1 μM, 1.0 μM and 10 μM) of Thioperamide was added at the time of plating. At the conclusion of one round of cell differentiation (7-12 days), cells were assayed for the production of the cytokines, IL-2, IL-4, IL-5, IL-10, IL-12-p70, IL-13, IFN-γ, TNF-alpha, and TGFβ1, by Searchlight™ technology, a chemiluminescent enzyme-linked immunoabsorbant assay (ELISA) according to the manufacturer's instructions, commercially available from Pierce Biotechnology.
(§4) Data are plotted as a percent of control (untreated) assuming that the levels of cytokine production in stimulated differentiated cells in the absence of Thioperamide is 100%.
(§5) Differentiated cells were prepared as described in Example 1. Varying concentrations (1.0 μM, 10.0 μM and 100 μM) of Serotonin was added at the time of plating. At the conclusion of one round of cell differentiation (7-12 days), cells were assayed for the production of the cytokines, IL-2, IL-4, IL-5, IL-10, IL-12-p70, IL-13, IFN-γ, TNFα, and TGFβ1, by ELISA as described in Example 5.
(§6) Data are plotted as a percent of control (untreated) assuming that the levels of cytokine production in stimulated PBL in the absence of Serotonin is 100%.
as §5, with “(0.1” for “(1.0”, “1.0” for “10.0”, “10.0” for “100”, “Rolipram or Zardaverine” for “Serotonin”
(§7) The results of the effect of Rolipram on the production of cytokines is shown in FIGS. 11A, 11B, and 11C, and the results of the effect of Zardaverine on the production of cytokines is shown in FIGS. 12A, 12B, and 12C. Data are plotted as a percent of control (untreated) assuming that the levels of cytokine production in stimulated PBL in the absence of rolipram or zardaverine is 100%.

[4] = tested on: Th2 cells; assay: Proliferation of differentiated Th2 cells (cell count); settings: cells counted
Excerpt: (§8) Differentiated cell lines were produced from cells prepared from human cord blood or peripheral blood CD4+CD45RA+ naïve T cells by a variety of methods, including flow cytometry and magnetic bead separations. Purity of the starting populations was >95%. Cells were then stimulated by CD3 and CD28 antibodies in RPMI 1640 with 10% FCS and 1% Human AB serum with defined mixtures of cytokines and neutralizing antibodies to cytokines to produce the differentiated cell types. […]
as §2
as §2, with “anti-CD28 (as described in Example 7),” for “anti-CD28,”, “either Rolipram or Zardaverine” for “Serotonin”, “0.1 μM, 1.0 μM and” for “1,”, “μM” for “and 100 μM,”

[5] = tested on: Th1 cells; assay: Cytokine production in differentiated Th1 cells (Searchlight ELISA); settings: percent of untreated control, 7-12 days
Excerpt: as §1, §3, §4, §5, §6
as §5, with “(0.1” for “(1.0”, “1.0” for “10.0”, “10.0” for “100”, “Rolipram or Zardaverine” for “Serotonin”
as §7

[6] = tested on: TGFβ1-derived Treg cells; assay: Cytokine production in TGFβ1-derived Treg cells (Searchlight ELISA); settings: percent of untreated control, 7-12 days
Excerpt: as §1, §3, §4, §5, §6
as §5, with “(0.1” for “(1.0”, “1.0” for “10.0”, “10.0” for “100”, “Rolipram or Zardaverine” for “Serotonin”
as §7

[7] = tested on: Th1 cells; assay: Proliferation of differentiated Th1 cells (cell count); settings: re-stimulated with anti-CD3 and anti-CD28, three days, cells counted; vs untreated cells
Excerpt: as §8, §2
as §2, with “anti-CD28 (as described in Example 7),” for “anti-CD28,”, “either Rolipram or Zardaverine” for “Serotonin”, “0.1 μM, 1.0 μM and” for “1,”, “μM” for “and 100 μM,”

[8] = mRNA, among the concentrations tested
[9] = mRNA, over the concentrations tested, control = 100%
[10] = PBL stimulated 72 hours with anti-CD3/anti-CD28, mRNA, FIG. 1

CC(C)Oc1ccc2c(=O)c3cc(C(=O)O)ccc3oc2c1 [AH6809]
Tbox21 expression relative to untreated control ([1]; at 0.1 μM): increased | Tbox21 expression relative to untreated control ([1]; at 10 μM): decreased | concentration of maximal FOXP3 expression [1, 8]: 0.1 µM | FOXP3 expression relative to control [1, 9]: trend toward increasing | GATA3 expression relative to control [1, 9]: unchanged

COc1ccc(C2CNC(=O)C2)cc1OC1CCCC1 (stereo not drawn) [Rolipram]
proliferation of TGFβ1-derived Treg cells compared with Th1 and Th2 cells ([2]; 0.1, 1.0 and 10 μM, three days): may have been more strongly affected | proliferation of TGFβ1-derived Treg cells [2]: reduce | production of IL-4 [3]: significantly increased | production of IL-5 [3]: significantly increased | production of IL-13 [3]: significantly increased | proliferation of Th2 cells ([4]; re-stimulated with anti-CD3 and anti-CD28, three days, vs untreated cells): reduce | FOXP3 expression relative to control [1, 9]: increased expression | GATA3 expression relative to control [1, 9]: increased expression | Tbox21 expression relative to control [1, 9]: neither of these inhibitors had more than a modest effect | production of IL-10 [5]: significantly reduced | production of TGFβ1 [6]: significantly increased | proliferation of Th1 cells [7]: reduce

NCCc1c[nH]c2ccc(O)cc12 [Serotonin]
proliferation of TGFβ1-derived Treg cells [2]: no proliferative effect | production of IL-4 [3]: significantly reduced | production of IL-5 [3]: significantly reduced | production of IL-10 [3]: no effect | production of IL-13 [3]: significantly reduced | increase of proliferation of Th2 cells compared to untreated control cells ([4]; at each concentration tested (1, 10 and 100 μM), three days): 50% | concentration of maximal GATA3 induction [1, 8]: 10.0 µM | concentration of maximal Tbox 21 induction [1, 8]: 1.0 µM | FOXP3 expression relative to control [1, 9]: increase | GATA3 expression relative to control [1, 9]: increase | Tbox21 expression relative to control [1, 9]: increase | production of IFN-gamma [5]: significantly reduced | production of IL-2 [5]: significantly reduced | production of IL-10 [5]: significantly reduced | production of IL-12 [5]: significantly reduced | production of TNF-alpha [5]: significantly reduced | production of IFN-gamma [6]: significantly reduced | production of IL-2 [6]: significantly reduced | production of TGFβ1 [6]: significantly reduced | proliferation of Th1 cells [7]: no proliferative effect

S=C(NC1CCCCC1)N1CCC(c2cnc[nH]2)CC1 [Thioperamide]
production of IL-4 [3]: significantly increased | production of IL-5 [3]: significantly increased | production of IL-10 [3]: significantly reduced | production of IL-13 [3]: significantly increased | FOXP3 expression relative to control ([1]; at 10 μM): moderate increase | GATA3 expression relative to control ([1]; at 10 μM): moderate increase | Tbox21 expression relative to control [1, 9]: relatively unchanged | production of IFN-gamma [5]: significantly induce | production of IL-13 [5]: significantly reducing | production of TNF-alpha [5]: significantly induce | production of IFN-gamma [6]: significantly increased | production of IL-2 [6]: significantly increased | production of IL-4 [6]: significantly reduced | production of IL-10 [6]: significantly increased | production of TGFβ1 [6]: significantly increased

TGFβ1: Transforming growth factor, beta 1; secreted protein added to stimulated PBL
FOXP3 expression relative to an untreated control [1, 10]: approximately 2.5 fold | GATA3 expression relative to an untreated control [1, 10]: approximately 2 fold
